{"source": "paper PMC12108424", "about": "“Genetically Modified Mesenchymal Stromal/Stem Cells as a Delivery Platform for SE-33, a Cathelicidin LL-37 Analogue: Preclinical Pharmacokinetics and Tissue Distribution in C57BL/6 Mice” (Antibiotics, 2025)", "key": {"E. coli": {"system": "E. coli", "set-up": "method as in PMID 38391576, doi:10.1134/S1068162019020158, PMID 40072070", "conditions": "in vitro; cited from earlier work"}, "[1]": {"set-up": "species or system C57BL/6 mice", "conditions": "mouse, in vivo", "description": "The tissue availability and distribution of SE-33 peptide were further assessed using the following parameters: fT: tissue penetration factor. This parameter reflects the ratio of drug exposure in tissues relative to plasma or serum and is used to assess antimicrobial drug distribution at the target site and to guide therapy selection. In this study, fT was calculated using the following equation:(4) fT=AUC0–t(tissue)/AUC0–t(serum) This approach, commonly applied in evaluating drug distribution within extravascular compartments, particularly for antimicrobial agents, is consistent with its established definition in pharmacokinetics as the tissue-to-plasma AUC ratio [99, 100]."}, "fungi and yeast": {"system": "fungi and yeast", "set-up": "method as in PMID 38391576, doi:10.1134/S1068162019020158, PMID 40072070", "conditions": "in vitro; cited from earlier work"}, "S. aureus": {"system": "S. aureus", "set-up": "method as in PMID 38391576, doi:10.1134/S1068162019020158, PMID 40072070", "conditions": "in vitro; cited from earlier work"}, "in vivo [2]": {"assay": "in vivo", "set-up": "species or system C57BL/6 mice", "description": "(§1) The studies were conducted on sexually mature male C57BL/6 mice with an average body weight of 20 g and an age of 8 weeks. The animals were sourced from the “Andreevka”, branch of the Scientific Center of Biomedical Technologies of the Russian Federal Medical and Biological Agency (Russia). The mice underwent a 14-day acclimatization period. The animals were housed in individually ventilated polysulfone cages ISO RAIR 4 × 8 (LabProducts, Aberdeen, WA, USA) with Rehofix MK2000 corn cob bedding (J. Rettenmaier and Söhne GmbH, Rosenberg, Germany). The animal housing environment followed a 12-h light/dark cycle with an ad libitum access to water and standard laboratory feed. The group assignment was based on body weight, ensuring a no more than 10% deviation from the average group weight. All experimental procedures were approved by the Local Ethics Committee (LEC) of the Federal State Budgetary Educational Institution of Higher Education “Privolzhsky Research Medical University” Ministry of Health of the Russian Federation (Protocol No. 06, dated 29 April 2022) and adhered to the guidelines for the care and use of laboratory animals.\n(§2) Immediately prior to administration, WJ-MSC-SE33 cells were resuspended in a saline solution (0.9% NaCl). The mice were divided into groups (n = 48) and fasted for 8 h before intravenous injection. The injection volume was calculated based on body weight. Single-dose administrations were 1 × 10^5 cells/mouse (0.5 × 10^7 cells/kg), 2.5 × 10^5 cells/mouse (1.25 × 10^7 cells/kg), and 5 × 10^5 cells/mouse (2.5 × 10^7 cells/kg) (Figure 4B). Repeated administrations were conducted on days 1, 3, and 5 at a dose of 1 × 10^5 cells/mouse (Figure 4B).\n(§3) The 0 h time point represents samples obtained from animals prior to WJ-MSC-SE33 injection (pre-dose baseline). SE-33 concentrations at baseline were established as 0 μg/mL since the peptide was undetectable (<LLOQ) in all pre-dose samples, confirming the absence of endogenous expression. Blood samples were collected into tubes without an anticoagulant and centrifuged at 3000 rpm for 15 min at room temperature. Then, serum samples were isolated and placed in cryovials. Samples of peripheral tissues (lungs, liver, and spleen) were collected at similar time points. Blood and tissue samples were stored at −79 °C.\n(§4) Thawed mouse serum was centrifuged at 12,000 rpm for 30 min using a MiniSpin centrifuge (Eppendorf, Hamburg, Germany). The supernatant was collected and diluted 20-fold with 20 mM TrisHCl (pH 7.8). For peripheral tissue samples, 100 mg of thawed tissue was weighed using Sartorius CPA225D scales (Sartorius, Göttingen, Germany) and homogenized in 1.6 mL of acidified ethanol (0.5 mL HCl in 1000 mL ethanol) using a Heidolph Diax 100 homogenizer (Heidolph Instruments, Schwabach, Germany) at 25,000 rpm on ice for 1 min. The homogenate was centrifuged at 12,000 rpm for 30 min. The supernatant was collected and diluted 20-fold with 20 mM Tris-HCl (pH 7.8).\n(§5) To construct a protein that specifically binds to the SE-33 peptide ([…]), a complementary sequence with a high affinity to the SE-33 was calculated using the Antimicrobial Peptide Database APD3 [94, 95]. The sequence was cloned into a plasmid and expressed in E. coli strain BL21(DE3). The protein was then isolated and purified using a Ni-NTA column. Purified protein was conjugated with Epoxy-activated Sepharose 6B, creating a sorbent (Epoxy-Protein Sepharose) with a binding capacity of 240 μg/mL for the SE-33 peptide.\n(§6) A column containing 5 mL of Epoxy-Protein Sepharose was equilibrated with 20 mM TrisHCl (pH 7.8). The sample was applied to the column via a 2 mL loop, followed by washing with 25 mL of 20 mM TrisHCl (pH 7.8). The SE-33 peptide was eluted with 5 mL of 75 mM NaCl in 20 mM TrisHCl (pH 7.8) without fractionation. The eluate enriched with the SE-33 peptide was subjected to solid-phase extraction. […]"}, "in vivo [3]": {"assay": "in vivo", "set-up": "species or system C57BL/6 mice", "conditions": "iv", "description": "as §1, §2\nas §3, with “Blood samples were collected from the subclavian artery at 4, 8, 12, 16, 20, 24, 36, and 48 h post-administration (n = 6 animals/time point) (Figure 1B). […] The 0” for “The 0”\nas §4, §5\nas §6, with “fractionation.” for “fractionation. The eluate enriched with the SE-33 peptide was subjected to solid-phase extraction.”"}}, "note": "Where no end group is shown, it is not given here.", "data": [{"sequence": "SETRPVLNRLFDKIRQVRKEFGKIKEKSRKFM [SE-33]", "values": [{"measurement": "minimum bactericidal concentration (MBC)", "setting": "E. coli", "result": 20, "unit": "mg/L"}, {"measurement": "increase of fT relative to the highest single dose", "setting": "[1]", "result": 20.0, "unit": "%"}, {"measurement": "rise of fT", "setting": "[1]", "result": 25.0, "unit": "%"}, {"measurement": "minimum inhibitory concentration (MIC)", "setting": "fungi and yeast", "result": "31.2 to 1024", "unit": "mg/L"}, {"measurement": "minimum inhibitory concentration (MIC)", "setting": "S. aureus", "result": 12.5, "unit": "mg/L"}, {"measurement": "AUC(0-t)", "setting": "in vivo [2]; male, C57BL/6, mouse, iv", "result": 2.01, "unit": "µg·h/mL"}, {"measurement": "Tmax", "setting": "in vivo [2]; male, C57BL/6, mouse, iv", "result": 8, "unit": "h"}, {"measurement": "Cmax", "setting": "in vivo [2]; male, C57BL/6, mouse, iv, Cmax", "result": 0.142, "unit": "µg/mL"}, {"measurement": "MRT", "setting": "in vivo [2]; male, C57BL/6, mouse, iv, MRT0–∞", "result": 10.4, "unit": "h"}, {"measurement": "half-life", "setting": "in vivo [2]; male, C57BL/6, mouse, iv, T1/2 (elimination half-life)", "result": 4.8, "unit": "h"}, {"measurement": "persistence of the peptide in tissues", "setting": "in vivo [2]; mouse", "result": "up to 48 h"}, {"measurement": "SE-33 concentration at 8 h", "setting": "in vivo [2]; mouse, iv", "result": 0.043, "unit": "μg/mL"}, {"measurement": "SE-33 level in liver exceeding that in the lungs", "setting": "in vivo [2]; mouse, iv", "result": 4, "unit": "fold"}, {"measurement": "SE-33 levels within 2 h post-intravenous administration", "setting": "in vivo [2]; mouse, iv", "result": "no detectable SE-33 levels"}, {"measurement": "AUC", "setting": "in vivo [3]; male, C57BL/6, mouse", "result": 8.21, "unit": "µg·h/mL"}, {"measurement": "AUC(0-inf)", "setting": "in vivo [3]; male, C57BL/6, mouse", "result": 8.05, "unit": "µg·h/mL"}, {"measurement": "Cmax", "setting": "in vivo [3]; male, C57BL/6, mouse", "result": 0.233, "unit": "µg/mL"}, {"measurement": "Tmax", "setting": "in vivo [3]; male, C57BL/6, mouse", "result": 8, "unit": "h"}, {"measurement": "half-life", "setting": "in vivo [3]; male, C57BL/6, mouse", "result": 23.1, "unit": "h"}, {"measurement": "MRT", "setting": "in vivo [3]; male, C57BL/6, mouse, MRT4–24", "result": 34.2, "unit": "h"}, {"measurement": "MRT", "setting": "in vivo [3]; male, C57BL/6, mouse, MRT4–∞", "result": 31.4, "unit": "h"}, {"measurement": "Tmax", "setting": "in vivo [3]; mouse", "result": 4, "unit": "h"}]}]}
